Assay results from patent US20240246942A1, “KINASE INHIBITORS FOR THE TREATMENT OF NEURODEGENERATIVE DISEASES” (priority 2020, published 2024).

How the values were obtained:
Assay in all cases: biochemical
[1] = biological target: T1, panel of 374 wild-type kinases (Homo sapiens, UniProt Q9Y463); details: DYRK1B, read-out: % Enzyme Activity (relative to DMSO controls)
T1 construct: purchased Reaction Biology Corporation

[2] = biological target: T2, panel of 374 wild-type kinases (Homo sapiens, UniProt P80192); details: read-out: % Enzyme Activity (relative to DMSO controls), MLK1/MAP3K9
T2 construct: purchased Reaction Biology Corporation

[3] = biological target: T3, panel of 374 wild-type kinases (Homo sapiens, UniProt O94921); details: read-out: % Enzyme Activity (relative to DMSO controls), CDK14/cyclin Y (PFTK1)
T3 construct: purchased Reaction Biology Corporation

[4] = biological target: T4, panel of 374 wild-type kinases (Homo sapiens, UniProt Q14012); details: read-out: % Enzyme Activity (relative to DMSO controls), CAMK1a
T4 construct: purchased Reaction Biology Corporation

[5] = biological target: T5, panel of 374 wild-type kinases (Homo sapiens, UniProt Q96SB4); details: read-out: % Enzyme Activity (relative to DMSO controls), kinase SRPK1
T5 construct: purchased Reaction Biology Corporation

[6] = biological target: T6, panel of 374 wild-type kinases (Homo sapiens, UniProt Q9Y2H1); details: read-out: % Enzyme Activity (relative to DMSO controls), kinase STK38L/NDR2
T6 construct: purchased Reaction Biology Corporation

[7] = biological target: T7, panel of 374 wild-type kinases (Homo sapiens, UniProt Q02779); details: read-out: % Enzyme Activity (relative to DMSO controls), MLK2/MAP3K10
T7 construct: purchased Reaction Biology Corporation

[8] = biological target: T8, panel of 374 wild-type kinases (Homo sapiens, UniProt O60285); details: read-out: % Enzyme Activity (relative to DMSO controls), ARK5/NUAK1
T8 construct: purchased Reaction Biology Corporation
T8 sequence (O60285 1-661): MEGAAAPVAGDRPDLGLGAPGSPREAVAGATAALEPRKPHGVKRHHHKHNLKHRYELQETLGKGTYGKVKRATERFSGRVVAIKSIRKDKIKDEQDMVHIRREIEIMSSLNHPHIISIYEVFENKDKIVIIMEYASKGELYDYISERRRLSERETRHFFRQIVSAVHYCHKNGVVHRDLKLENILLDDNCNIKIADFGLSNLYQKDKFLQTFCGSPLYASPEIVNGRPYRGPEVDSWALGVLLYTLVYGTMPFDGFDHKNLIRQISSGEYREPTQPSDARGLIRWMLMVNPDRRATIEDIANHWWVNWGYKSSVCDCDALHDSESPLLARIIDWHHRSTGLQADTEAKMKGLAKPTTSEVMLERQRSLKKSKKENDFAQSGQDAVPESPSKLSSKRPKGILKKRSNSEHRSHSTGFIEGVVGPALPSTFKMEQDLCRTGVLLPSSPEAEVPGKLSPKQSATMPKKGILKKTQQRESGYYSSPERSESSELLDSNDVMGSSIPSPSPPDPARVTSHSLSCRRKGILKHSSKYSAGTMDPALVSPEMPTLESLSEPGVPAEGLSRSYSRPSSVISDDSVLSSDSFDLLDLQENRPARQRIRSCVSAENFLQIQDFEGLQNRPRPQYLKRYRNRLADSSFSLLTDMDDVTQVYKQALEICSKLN

[9] = biological target: T9, panel of 374 wild-type kinases (Homo sapiens, UniProt Q8IU85); details: read-out: % Enzyme Activity (relative to DMSO controls), CAMK1d
T9 construct: purchased Reaction Biology Corporation

[10] = biological target: T10, panel of 374 wild-type kinases (Homo sapiens, UniProt Q00536); details: read-out: % Enzyme Activity (relative to DMSO controls), CDK16/cyclin Y (PCTAIRE)
T10 construct: purchased Reaction Biology Corporation

[11] = biological target: T11, panel of 374 wild-type kinases (Homo sapiens, UniProt Q8IWQ3); details: read-out: % Enzyme Activity (relative to DMSO controls), BRSK2
T11 construct: purchased Reaction Biology Corporation
T11 sequence (Q8IWQ3 1-736): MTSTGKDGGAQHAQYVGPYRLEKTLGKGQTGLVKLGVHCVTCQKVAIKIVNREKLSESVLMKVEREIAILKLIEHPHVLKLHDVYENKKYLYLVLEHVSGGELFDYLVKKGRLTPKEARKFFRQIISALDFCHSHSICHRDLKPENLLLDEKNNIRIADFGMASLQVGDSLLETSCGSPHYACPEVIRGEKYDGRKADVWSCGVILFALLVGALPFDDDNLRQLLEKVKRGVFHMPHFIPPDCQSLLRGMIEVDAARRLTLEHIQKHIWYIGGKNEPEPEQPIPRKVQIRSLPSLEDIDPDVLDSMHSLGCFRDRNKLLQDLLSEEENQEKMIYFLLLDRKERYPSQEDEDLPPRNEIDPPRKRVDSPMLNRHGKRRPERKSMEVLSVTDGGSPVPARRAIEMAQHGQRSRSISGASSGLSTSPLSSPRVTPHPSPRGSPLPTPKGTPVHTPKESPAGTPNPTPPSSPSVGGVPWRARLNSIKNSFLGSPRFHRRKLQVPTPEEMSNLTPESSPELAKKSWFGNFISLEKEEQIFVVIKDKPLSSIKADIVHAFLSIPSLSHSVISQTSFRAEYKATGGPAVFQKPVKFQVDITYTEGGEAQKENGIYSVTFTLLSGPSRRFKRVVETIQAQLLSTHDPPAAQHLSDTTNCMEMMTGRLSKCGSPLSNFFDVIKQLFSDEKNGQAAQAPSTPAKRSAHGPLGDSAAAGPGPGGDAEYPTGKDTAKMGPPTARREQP

[12] = biological target: T12, panel of 374 wild-type kinases (Homo sapiens, UniProt P11362); details: read-out: % Enzyme Activity (relative to DMSO controls), FGFR1
T12 construct: purchased Reaction Biology Corporation

[13] = biological target: T13, panel of 374 wild-type kinases (Homo sapiens, UniProt P00519); details: read-out: % Enzyme Activity (relative to DMSO controls), ABL1
T13 construct: purchased Reaction Biology Corporation

[14] = biological target: T14, panel of 374 wild-type kinases (Homo sapiens, UniProt Q9HC98); details: read-out: % Enzyme Activity (relative to DMSO controls), NEK6
T14 construct: purchased Reaction Biology Corporation

[15] = biological target: T15, panel of 374 wild-type kinases (Homo sapiens, UniProt Q02750); details: read-out: % Enzyme Activity (relative to DMSO controls), MEK1
T15 construct: purchased Reaction Biology Corporation

T7 sequence (Q02779 whole entry): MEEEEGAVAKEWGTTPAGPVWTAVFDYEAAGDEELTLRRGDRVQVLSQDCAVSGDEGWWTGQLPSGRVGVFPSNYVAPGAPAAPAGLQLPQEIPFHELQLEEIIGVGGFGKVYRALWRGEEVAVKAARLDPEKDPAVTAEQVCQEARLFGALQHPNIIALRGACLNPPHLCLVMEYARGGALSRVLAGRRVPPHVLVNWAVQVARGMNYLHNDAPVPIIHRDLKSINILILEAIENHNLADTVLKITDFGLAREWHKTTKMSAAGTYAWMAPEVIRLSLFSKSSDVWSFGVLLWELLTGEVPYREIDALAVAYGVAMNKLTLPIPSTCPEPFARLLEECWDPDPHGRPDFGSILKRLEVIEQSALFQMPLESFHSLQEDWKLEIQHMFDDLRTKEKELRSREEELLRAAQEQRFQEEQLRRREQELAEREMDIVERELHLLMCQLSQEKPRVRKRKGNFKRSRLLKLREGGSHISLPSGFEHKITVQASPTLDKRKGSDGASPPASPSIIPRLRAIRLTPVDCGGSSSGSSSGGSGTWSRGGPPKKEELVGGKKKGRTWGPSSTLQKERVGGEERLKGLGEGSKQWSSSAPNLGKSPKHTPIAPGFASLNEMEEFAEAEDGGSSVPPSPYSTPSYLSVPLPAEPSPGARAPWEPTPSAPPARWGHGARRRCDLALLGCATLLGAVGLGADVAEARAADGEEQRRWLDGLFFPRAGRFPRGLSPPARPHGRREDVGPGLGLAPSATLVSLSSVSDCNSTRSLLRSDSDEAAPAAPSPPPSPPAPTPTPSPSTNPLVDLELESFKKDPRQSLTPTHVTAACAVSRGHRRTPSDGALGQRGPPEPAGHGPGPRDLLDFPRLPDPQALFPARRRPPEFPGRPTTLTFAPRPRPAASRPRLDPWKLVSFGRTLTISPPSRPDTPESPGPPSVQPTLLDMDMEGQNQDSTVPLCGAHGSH
T9 sequence (Q8IU85 whole entry): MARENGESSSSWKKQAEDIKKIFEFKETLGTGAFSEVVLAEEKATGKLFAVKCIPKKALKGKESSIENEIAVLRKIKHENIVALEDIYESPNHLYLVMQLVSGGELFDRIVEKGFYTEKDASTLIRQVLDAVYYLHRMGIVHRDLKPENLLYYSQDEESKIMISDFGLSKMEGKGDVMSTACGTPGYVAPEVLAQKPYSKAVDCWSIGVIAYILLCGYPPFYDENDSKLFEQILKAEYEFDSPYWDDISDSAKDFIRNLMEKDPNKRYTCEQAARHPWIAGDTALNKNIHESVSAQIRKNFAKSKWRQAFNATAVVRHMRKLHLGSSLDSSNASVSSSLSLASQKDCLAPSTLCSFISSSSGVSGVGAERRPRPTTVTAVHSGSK
T6 sequence (Q9Y2H1 whole entry): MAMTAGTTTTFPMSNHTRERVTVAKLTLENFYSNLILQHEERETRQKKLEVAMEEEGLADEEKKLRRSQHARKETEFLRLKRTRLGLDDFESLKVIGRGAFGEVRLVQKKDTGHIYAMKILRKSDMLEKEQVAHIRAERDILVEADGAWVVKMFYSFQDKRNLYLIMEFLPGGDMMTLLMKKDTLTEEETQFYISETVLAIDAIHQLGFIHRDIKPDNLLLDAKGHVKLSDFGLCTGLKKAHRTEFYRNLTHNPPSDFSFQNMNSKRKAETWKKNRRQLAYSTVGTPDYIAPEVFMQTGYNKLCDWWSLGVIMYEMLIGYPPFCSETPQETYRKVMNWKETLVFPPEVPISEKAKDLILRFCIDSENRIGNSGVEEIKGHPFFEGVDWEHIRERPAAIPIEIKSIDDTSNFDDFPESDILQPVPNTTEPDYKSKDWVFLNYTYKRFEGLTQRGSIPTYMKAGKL
T5 sequence (Q96SB4 whole entry): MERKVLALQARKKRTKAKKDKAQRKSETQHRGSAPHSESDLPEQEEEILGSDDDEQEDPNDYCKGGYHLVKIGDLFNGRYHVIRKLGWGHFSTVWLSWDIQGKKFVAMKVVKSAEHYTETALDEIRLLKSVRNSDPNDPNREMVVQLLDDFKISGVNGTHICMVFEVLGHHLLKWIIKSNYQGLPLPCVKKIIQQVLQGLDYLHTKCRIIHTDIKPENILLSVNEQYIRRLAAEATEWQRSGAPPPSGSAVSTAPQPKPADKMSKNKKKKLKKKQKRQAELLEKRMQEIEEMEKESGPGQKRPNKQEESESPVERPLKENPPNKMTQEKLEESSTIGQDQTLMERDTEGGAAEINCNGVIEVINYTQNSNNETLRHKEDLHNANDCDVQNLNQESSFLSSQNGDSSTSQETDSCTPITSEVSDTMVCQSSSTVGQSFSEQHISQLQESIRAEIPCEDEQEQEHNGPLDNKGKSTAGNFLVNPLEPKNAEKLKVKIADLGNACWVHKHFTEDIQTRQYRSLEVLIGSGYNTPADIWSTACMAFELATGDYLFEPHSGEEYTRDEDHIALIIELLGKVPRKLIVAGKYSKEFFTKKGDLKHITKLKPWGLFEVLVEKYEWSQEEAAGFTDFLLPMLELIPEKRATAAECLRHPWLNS
T2 sequence (P80192 whole entry): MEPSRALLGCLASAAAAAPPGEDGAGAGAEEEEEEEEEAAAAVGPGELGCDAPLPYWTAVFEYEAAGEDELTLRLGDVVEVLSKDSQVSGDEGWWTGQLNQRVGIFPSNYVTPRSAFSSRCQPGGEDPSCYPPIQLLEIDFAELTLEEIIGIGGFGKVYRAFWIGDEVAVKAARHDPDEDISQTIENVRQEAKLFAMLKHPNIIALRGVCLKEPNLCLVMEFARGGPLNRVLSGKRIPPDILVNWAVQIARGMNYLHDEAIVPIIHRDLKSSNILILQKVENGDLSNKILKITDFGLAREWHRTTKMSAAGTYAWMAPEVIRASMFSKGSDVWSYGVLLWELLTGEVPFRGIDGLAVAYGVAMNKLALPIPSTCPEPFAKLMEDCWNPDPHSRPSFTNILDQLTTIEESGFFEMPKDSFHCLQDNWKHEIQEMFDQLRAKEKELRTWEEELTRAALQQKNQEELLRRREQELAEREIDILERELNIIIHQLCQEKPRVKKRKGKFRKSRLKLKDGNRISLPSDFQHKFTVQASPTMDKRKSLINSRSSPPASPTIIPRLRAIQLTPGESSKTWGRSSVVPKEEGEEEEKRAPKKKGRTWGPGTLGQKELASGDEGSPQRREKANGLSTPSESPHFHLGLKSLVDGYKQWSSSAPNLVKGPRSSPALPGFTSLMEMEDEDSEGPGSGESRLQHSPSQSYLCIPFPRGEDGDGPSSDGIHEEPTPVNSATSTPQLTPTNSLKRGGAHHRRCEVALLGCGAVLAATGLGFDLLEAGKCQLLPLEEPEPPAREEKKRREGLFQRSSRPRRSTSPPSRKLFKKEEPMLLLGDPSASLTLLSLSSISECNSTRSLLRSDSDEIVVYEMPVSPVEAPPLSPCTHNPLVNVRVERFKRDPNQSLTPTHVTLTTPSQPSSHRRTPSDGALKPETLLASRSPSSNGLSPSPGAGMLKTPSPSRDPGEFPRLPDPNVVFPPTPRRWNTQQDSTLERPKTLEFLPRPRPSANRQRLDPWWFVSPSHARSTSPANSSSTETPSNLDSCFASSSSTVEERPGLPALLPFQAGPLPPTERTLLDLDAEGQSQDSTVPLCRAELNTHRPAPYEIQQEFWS
T3 sequence (O94921 whole entry): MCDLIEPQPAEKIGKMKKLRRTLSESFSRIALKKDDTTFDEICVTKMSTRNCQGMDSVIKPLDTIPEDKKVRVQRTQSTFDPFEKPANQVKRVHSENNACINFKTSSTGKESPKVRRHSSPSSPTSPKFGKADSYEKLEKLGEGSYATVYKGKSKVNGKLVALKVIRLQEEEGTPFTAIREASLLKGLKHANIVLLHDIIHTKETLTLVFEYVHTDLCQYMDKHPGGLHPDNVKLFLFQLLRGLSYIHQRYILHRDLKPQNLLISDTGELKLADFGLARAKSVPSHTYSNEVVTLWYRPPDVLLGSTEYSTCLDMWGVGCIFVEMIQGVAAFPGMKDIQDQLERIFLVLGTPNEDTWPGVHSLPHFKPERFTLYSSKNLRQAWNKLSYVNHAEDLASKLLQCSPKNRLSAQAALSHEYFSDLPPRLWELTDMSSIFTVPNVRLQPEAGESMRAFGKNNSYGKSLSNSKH
T4 sequence (Q14012 whole entry): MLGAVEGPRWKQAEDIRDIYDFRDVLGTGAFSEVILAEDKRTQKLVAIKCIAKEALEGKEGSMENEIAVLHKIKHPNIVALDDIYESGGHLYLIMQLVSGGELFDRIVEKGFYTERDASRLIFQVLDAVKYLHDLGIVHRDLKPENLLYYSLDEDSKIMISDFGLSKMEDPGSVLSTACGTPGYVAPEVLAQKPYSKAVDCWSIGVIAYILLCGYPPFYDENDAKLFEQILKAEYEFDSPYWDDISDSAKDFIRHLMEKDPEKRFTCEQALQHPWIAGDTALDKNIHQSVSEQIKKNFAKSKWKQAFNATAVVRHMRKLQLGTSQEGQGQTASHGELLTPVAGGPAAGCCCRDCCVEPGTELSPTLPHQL
T10 sequence (Q00536 whole entry): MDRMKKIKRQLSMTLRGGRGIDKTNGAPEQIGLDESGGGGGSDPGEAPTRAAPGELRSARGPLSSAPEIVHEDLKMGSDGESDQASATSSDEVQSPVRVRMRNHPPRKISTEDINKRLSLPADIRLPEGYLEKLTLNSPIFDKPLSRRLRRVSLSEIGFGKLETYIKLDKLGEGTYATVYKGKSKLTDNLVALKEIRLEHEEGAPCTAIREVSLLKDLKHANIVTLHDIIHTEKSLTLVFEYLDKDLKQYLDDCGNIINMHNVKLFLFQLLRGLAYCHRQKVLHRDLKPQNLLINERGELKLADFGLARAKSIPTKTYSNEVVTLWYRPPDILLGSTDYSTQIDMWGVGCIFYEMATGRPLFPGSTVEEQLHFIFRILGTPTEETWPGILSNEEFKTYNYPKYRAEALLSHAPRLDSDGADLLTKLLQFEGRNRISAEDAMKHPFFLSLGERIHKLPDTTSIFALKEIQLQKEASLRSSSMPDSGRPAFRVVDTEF

Row | SMILES | remaining activity at 5 µM [1] [%] | remaining activity at 5 µM [2] [%] | remaining activity at 5 µM [3] [%] | remaining activity at 5 µM [4] [%] | remaining activity at 5 µM [5] [%] | remaining activity at 5 µM [6] [%] | remaining activity at 5 µM [7] [%] | remaining activity at 5 µM [8] [%] | remaining activity at 5 µM [9] [%] | remaining activity at 5 µM [10] [%] | remaining activity at 5 µM [11] [%] | remaining activity at 5 µM [12] [%] | remaining activity at 5 µM [13] [%] | remaining activity at 5 µM [14] [%] | remaining activity at 5 µM [15] [%] | other results
1 | O=C(Nc1cnn(-c2csc(C(=O)NC3COC3)c2)c1)Nc1c(F)cccc1Cl [Compound 25, 4-(4-(3-(2-chloro-6-fluorophenyl)ureido)-1H-pyrazol-1-yl)-N-(oxetan-3-yl)thiophene-2-carboxamide] | 82.8 | 88.5 | 110 | 98 | 104 | 94.8 | 94.3 | 95.2 | 99.6 | 101 | 100 | 93.2 | 101 | 87.2 | 107 | 
2 | O=C(Nc1cnn(-c2csc(C(=O)NC3COC3)c2)c1)Nc1ccccc1Cl [Compound 17, 4-(4-(3-(2-chlorophenyl)ureido)-1H-pyrazol-1-yl)-N-(oxetan-3-yl)thiophene-2-carboxamide] | 87 | 95.1 | 107 | 87.1 | 98.7 | 103 | 98.5 | 97.9 | 104 | 94.8 | 102 | 98.5 | 83.4 | 103 | 104 | 
3 | Cc1sc(C(=O)NC2COC2)cc1-n1cc(NC(=O)Nc2c(F)cccc2Cl)cn1 [Compound 27, 4-(4-(3-(2-chloro-6-fluorophenyl)ureido)-1H-pyrazol-1-yl)-5-methyl-N-(oxetan-3-yl)thiophene-2-carboxamide] |  |  |  |  |  |  |  |  |  |  |  |  |  |  |  | remaining activity at 10 µM ([1]; 10 uM): 105%; remaining activity at 10 µM ([2]; 10 uM): 87.5%; remaining activity at 10 µM ([3]; 10 uM): 100%; remaining activity at 10 µM ([4]; 10 uM): 115%; remaining activity at 10 µM ([5]; 10 uM): 96.9%; remaining activity at 10 µM ([6]; 10 uM): 95.1%; remaining activity at 10 µM ([7]; 10 uM): 90.8%; remaining activity at 10 µM ([8]; 10 uM): 96.9%; remaining activity at 10 µM ([9]; 10 uM): 105%; remaining activity at 10 µM ([10]; 10 uM): 102%; remaining activity at 10 µM ([11]; 10 uM): 102%; remaining activity at 10 µM ([12]; 10 uM): 114%; remaining activity at 10 µM ([13]; 10 uM): 102%; remaining activity at 10 µM ([14]; 10 uM): 93.3%; remaining activity at 10 µM ([15]; 10 uM): 95.5%
